For three molecules, MTMD results are on record in patent publication US20250243174A1, “ANTITUMORAL COMPOUNDS” (PHARMA MAR, S.A., priority 2021, published 2025).

Structures are written as SMILES.

A short description of this data set: MTMD (Maximum Tolerated Multiple Dose) determination. The conditions noted are these: iv, Q7dx3; female athymic nude mice. Type of data set: in vivo. On the procedure:
Female Athymic Nude-Fox1 nu/nu mice (Envigo) were utilized for all experiments. Animals (N=10/cage) were housed in individually ventilated cages (Sealsafe Plus®, Techniplast S.P.A.), on a 12-hour light-dark cycle at 21-23° C. and 40-60% humidity. Mice were allowed free access to irradiated standard rodent diet (Tecklad 2914C) and sterilized water. Animals were acclimated for five days prior to being individually tattoo-identified. Animal protocols were reviewed and approved according to the regional Institutional Animal Care and Use Committees.
Mice were randomly allocated into experimental groups and intravenously administered, once for the MTD (Maximum Tolerated Dose) determination or one administration a week during three consecutive weeks, for the MTMD (Maximum Tolerated Multiple Dose) determination study. The animals were administered with white formulation or with compound dissolved in the experimental formulation at different concentrations. The volume administered was always 10 mL/kg. Once administered, animals were monitored for clinical signs of systemic toxicity, changes in body weight and mortality up to 14 days after the administration.
In the case of `COC1=CC[C@@H]([C@@H](C)/C=C(C)/C=C\C=C/C(=O)N[C@H](C(=O)N/C=C\C[C@H](C/C=C(\C)F)OC(N)=O)C(C)(C)C)OC1=O` [Compound 2], the MTMD was found to be 2.0 mg/kg.

In the case of `COC1=CC[C@@H]([C@@H](C)/C=C(C)/C=C\C=C/C(=O)N[C@H](C(=O)N/C=C\C[C@H](CC=C(C)C)OC(N)=O)C(C)(C)C)OC1=O` [Compound 3], the MTMD was found to be 1.0 mg/kg.

Take `C/C=C\C[C@@H](C/C=C\NC(=O)[C@@H](NC(=O)\C=C/C=C\C(C)=C\[C@H](C)[C@@H]1CC=C(OC)C(=O)O1)C(C)(C)C)OC(N)=O` [PM060184, reference compound]: the MTMD is listed as 16.0 mg/kg.
